Measurements taken from patent US20240287076A1, “COMPOUNDS FOR TARGETING DEGRADATION OF BRUTON'S TYROSINE KINASE” (BIOGEN MA INC., priority 2021, published 2024).

These molecules were tested against T1, BTK (Homo sapiens, UniProt Q06187) (assay: BTK degradation assay using the HiBiT Method (Nano-Glo HiBiT Lytic Assay, GM01501.3 cells)). Settings: HiBiT Degradation on GM01501.3 BTK @ 6 hours.
T1 construct: The GM01501.3 cell line endogenously expresses BTK with a HiBiT fusion tag via CRISPR knock-in at its C-terminal region; endogenous in cells; host or cells: GM01501.3 (GM01501 cells engineered by CRISPR knock-in of HiBiT at the BTK locus)
T1 sequence (Q06187 whole entry, the tested form may be a part): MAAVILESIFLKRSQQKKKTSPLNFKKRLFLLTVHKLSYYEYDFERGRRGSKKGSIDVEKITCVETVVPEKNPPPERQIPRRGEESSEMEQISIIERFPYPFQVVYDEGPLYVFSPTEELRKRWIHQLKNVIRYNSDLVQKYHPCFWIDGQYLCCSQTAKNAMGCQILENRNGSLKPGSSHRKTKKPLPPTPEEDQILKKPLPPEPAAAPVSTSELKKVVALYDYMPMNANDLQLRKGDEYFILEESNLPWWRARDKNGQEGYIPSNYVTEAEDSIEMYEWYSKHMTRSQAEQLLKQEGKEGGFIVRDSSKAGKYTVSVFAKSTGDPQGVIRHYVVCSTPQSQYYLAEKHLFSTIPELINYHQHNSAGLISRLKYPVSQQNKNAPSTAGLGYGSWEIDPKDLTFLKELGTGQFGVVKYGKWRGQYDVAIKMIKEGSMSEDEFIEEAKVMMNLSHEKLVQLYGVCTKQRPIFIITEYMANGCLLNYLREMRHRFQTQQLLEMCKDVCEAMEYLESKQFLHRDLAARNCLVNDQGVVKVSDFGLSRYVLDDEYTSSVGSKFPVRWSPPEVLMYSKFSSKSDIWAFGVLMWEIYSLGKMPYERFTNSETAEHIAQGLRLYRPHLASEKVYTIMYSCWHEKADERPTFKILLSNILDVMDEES
Format: cell-based
In short: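 CRISPR knock-in GM01501.3 cells expressing endogenous BTK with C-terminal HiBiT tag, treated 6 h at 37 °C with compounds, 11-point half-log titration from 10 μM top, duplicates. Remaining BTK quantified by Nano-Glo HiBiT lytic luminescence versus DMSO controls; DC50 reported.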

DC50, < 0.1 µM:
CC(C)(C)c1nc(C(=O)NCc2ccc(-c3ncnn4cc(-c5ccc(CN6CCOCC6Cc6ccc(OC7CCC(=O)NC7=O)cc6)cn5)cc34)cc2F)no1 (stereo not shown) [Example 238, 5-(tert-butyl)-N-(4-(6-(5-((3-(4-((2,6-dioxopiperidin-3-yl)oxy)benzyl)morpholino)methyl)pyridin-2-yl)pyrrolo [2,1-f][1,2,4]triazin-4-yl)-2-fluorobenzyl)-1,2,4-oxadiazole-3-carboxamide]
CC(C)(C)c1nc(C(=O)NCc2ccc(-c3ncnn4cc(-c5ccc(CN6CCC(CCc7ccc(OC8CCC(=O)NC8=O)cc7)CC6)cn5)cc34)cc2F)no1 (stereo not shown) [Example 239, 5-(tert-butyl)-N-(4-(6-(5-((4-(4-((2,6-dioxopiperidin-3-yl)oxy)phenethyl)piperidin-1-yl)methyl)pyridin-2-yl)pyrrolo [2,1-f][1,2,4]triazin-4-yl)-2-fluorobenzyl)-1,2,4-oxadiazole-3-carboxamide]
Cc1cc(-c2ncnn3cc(-c4ccc(CN5CCC(c6ccc(NC7CCC(=O)NC7=O)cc6)C(F)(F)C5)cc4)cc23)ccc1CNC(=O)c1noc(C(C)(C)C)n1 (stereo not shown) [Example 240, 5-(tert-butyl)-N-(4-(6-(4-((4-(4-((2,6-dioxopiperidin-3-yl)amino)phenyl)-3,3-difluoropiperidin-1-yl)methyl)phenyl)pyrrolo[2,1-f] [1,2,4]triazin-4-yl)-2-methylbenzyl)-1,2,4-oxadiazole-3-carboxamide]
Cc1cc(-c2ncnn3cc(-c4ccc(CN5CCC(c6ccc(NC7CCC(=O)NC7=O)cc6)CC5)cn4)cc23)ccc1CNC(=O)c1noc(C(C)(C)C)n1 (stereo not shown) [Example 241, 5-(tert-butyl)-N-(4-(6-(5-((4-(4-((2,6-dioxopiperidin-3-yl)amino)phenyl)piperidin-1-yl)methyl)pyridin-2-yl)pyrrolo[2,1-f][1,2,4]triazin-4-yl)-2-methylbenzyl)-1,2,4-oxadiazole-3-carboxamide]
Cn1nc(N2CCC(=O)NC2=O)c2ccc(C3CCN(Cc4ccc(-c5cc6c(-c7ccc(CNC(=O)c8noc(C(C)(C)C)n8)c(F)c7)ncnn6c5)c(F)c4)CC3)cc21 [Example 242, 5-(tert-butyl)-N-(4-(6-(4-((4-(3-(2,4-dioxotetrahydropyrimidin-1(2H)-yl)-1-methyl-1H-indazol-6-yl)piperidin-1-yl)methyl)-2-fluorophenyl)pyrrolo[2,1-f][1,2,4]triazin-4-yl)-2-fluorobenzyl)-1,2,4-oxadiazole-3-carboxamide]
Cn1nc(N2CCC(=O)NC2=O)c2ccc(C3CCN(Cc4ccc(-c5cc6c(-c7ccc(CNC(=O)c8noc(C(C)(C)C)n8)c(F)c7)ncnn6c5)nc4)CC3)cc21 [Example 243, 5-(tert-butyl)-N-(4-(6-(5-((4-(3-(2,4-dioxotetrahydropyrimidin-1(2H)-yl)-1-methyl-1H-indazol-6-yl)piperidin-1-yl)methyl)pyridin-2-yl)pyrrolo[2,1-f] [1,2,4]triazin-4-yl)-2-fluorobenzyl)-1,2,4-oxadiazole-3-carboxamide]
Cn1nc(N2CCC(=O)NC2=O)c2ccc(C3CCN(Cc4ccc(-c5cc6c(-c7ccc(CNC(=O)c8noc(C(C)(C)C)n8)c(F)c7)ncnn6c5)cn4)CC3)cc21 [Example 244, 5-(tert-butyl)-N-(4-(6-(6-((4-(3-(2,4-dioxotetrahydropyrimidin-1(2H)-yl)-1-methyl-1H-indazol-6-yl)piperidin-1-yl)methyl)pyridin-3-yl)pyrrolo[2,1-f][1,2,4]triazin-4-yl)-2-fluorobenzyl)-1,2,4-oxadiazole-3-carboxamide]
Cc1cc(-c2ncnn3cc(-c4ccc(CN5CCC(c6ccc7c(N8CCC(=O)NC8=O)nn(C)c7c6)CC5)c(F)c4)cc23)ccc1CNC(=O)c1noc(C(C)(C)C)n1 [Example 245, 5-(tert-butyl)-N-(4-(6-(4-((4-(3-(2,4-dioxotetrahydropyrimidin-1(^2H)-yl)-1-methyl-1H-indazol-6-yl)piperidin-1-yl)methyl)-3-fluorophenyl)pyrrolo[2,1-f][1,2,4]triazin-4-yl)-2-methylbenzyl)-1,2,4-oxadiazole-3-carboxamide]
Cc1cc(-c2ncnn3cc(-c4ccc(CN5CCC(c6ccc7c(N8CCC(=O)NC8=O)nn(C)c7c6)CC5)cc4F)cc23)ccc1CNC(=O)c1noc(C(C)(C)C)n1 [Example 246, 5-(tert-butyl)-N-(4-(6-(4-((4-(3-(2,4-dioxotetrahydropyrimidin-1(2H)-yl)-1-methyl-1H-indazol-6-yl)piperidin-1-yl)methyl)-2-fluorophenyl)pyrrolo[2,1-f][1,2,4]triazin-4-yl)-2-methylbenzyl)-1,2,4-oxadiazole-3-carboxamide]
Cc1cc(-c2ncnn3cc(-c4cccc(CN5CCC(c6ccc(OC7CCC(=O)NC7=O)cc6)CC5)n4)cc23)ccc1CNC(=O)c1noc(C(C)(C)C)n1 (stereo not shown) [Example 247, 5-(tert-butyl)-N-(4-(6-(6-((4-(4-((2,6-dioxopiperidin-3-yl)oxy)phenyl)piperidin-1-yl)methyl)pyridin-2-yl)pyrrolo[2,1-f][1,2,4]triazin-4-yl)-2-methylbenzyl)-1,2,4-oxadiazole-3-carboxamide]
Cc1cc(-c2ncnn3cc(-c4cccc(CN5CCC(c6ccc7c(N8CCC(=O)NC8=O)nn(C)c7c6)CC5)n4)cc23)ccc1CNC(=O)c1noc(C(C)(C)C)n1 [Example 248, 5-(tert-butyl)-N-(4-(6-(6-((4-(3-(2,4-dioxotetrahydropyrimidin-1(2H)-yl)-1-methyl-1H-indazol-6-yl)piperidin-1-yl)methyl)pyridin-2-yl)pyrrolo[2,1-f][1,2,4]triazin-4-yl)-2-methylbenzyl)-1,2,4-oxadiazole-3-carboxamide]
Cc1cc(-c2ncnn3cc(CCN4CCC(c5ccc(NC6CCC(=O)NC6=O)nc5)CC4)cc23)ccc1CNC(=O)c1noc(C(C)(C)C)n1 (stereo not shown) [Example 250, 5-(tert-butyl)-N-(4-(6-(2-(4-(6-((2,6-dioxopiperidin-3-yl)amino)pyridin-3-yl)piperidin-1-yl)ethyl)pyrrolo[2,1-f] [1,2,4]triazin-4-yl)-2-methylbenzyl)-1,2,4-oxadiazole-3-carboxamide]
Cc1cc(-c2ncnn3cc(CCN4CCC(c5ncc(NC6CCC(=O)NC6=O)cc5F)CC4)cc23)ccc1CNC(=O)c1noc(C(C)(C)C)n1 (stereo not shown) [Example 251, 5-(tert-butyl)-N-(4-(6-(2-(4-(5-((2,6-dioxopiperidin-3-yl)amino)-3-fluoropyridin-2-yl)piperidin-1-yl)ethyl)pyrrolo[2,1-f][1,2,4]triazin-4-yl)-2-methylbenzyl)-1,2,4-oxadiazole-3-carboxamide]
Cc1cc(-c2ncnn3cc(CCN4CCC(c5ccc(NC6CCC(=O)NC6=O)cn5)CC4)cc23)ccc1CNC(=O)c1noc(C(C)(C)C)n1 (stereo not shown) [Example 252, 5-(tert-butyl)-N-(4-(6-(2-(4-(5-((2,6-dioxopiperidin-3-yl)amino)pyridin-2-yl)piperidin-1-yl)ethyl)pyrrolo[2,1-f][1,2,4]triazin-4-yl)-2-methylbenzyl)-1,2,4-oxadiazole-3-carboxamide]
Cc1cc(-c2ncnn3cc(CCN4CCC(c5ccc6c(N7CCC(=O)NC7=O)nn(C)c6c5)C(F)(F)C4)cc23)ccc1CNC(=O)c1noc(C(C)(C)C)n1 (stereo not shown) [Example 253, 5-(tert-butyl)-N-(4-(6-(2-(4-(3-(2,4-dioxotetrahydropyrimidin-1(2H)-yl)-1-methyl-1H-indazol-6-yl)-3,3-difluoropiperidin-1-yl)ethyl)pyrrolo[2,1-f][1,2,4]triazin-4-yl)-2-methylbenzyl)-1,2,4-oxadiazole-3-carboxamide]
Cc1cc(-c2ncnn3cc(CCN4CCC(c5ccc(OC6CCC(=O)NC6=O)cc5F)CC4)cc23)ccc1CNC(=O)c1noc(C(C)(C)C)n1 (stereo not shown) [Example 254, 5-(tert-butyl)-N-(4-(6-(2-(4-(4-((2,6-dioxopiperidin-3-yl)oxy)-2-fluorophenyl)piperidin-1-yl)ethyl)pyrrolo[2,1-f][1,2,4]triazin-4-yl)-2-methylbenzyl)-1,2,4-oxadiazole-3-carboxamide]
Cc1cc(-c2ncnn3cc(CCN4CCC(c5ccc6c(C7CCC(=O)NC7=O)nn(C)c6c5)CC4)cc23)ccc1CNC(=O)c1noc(C(C)(C)C)n1 (stereo not shown) [Example 255, 5-(tert-butyl)-N-(4-(6-(2-(4-(3-(2,6-dioxopiperidin-3-yl)-1-methyl-1H-indazol-6-yl)piperidin-1-yl)ethyl)pyrrolo[2,1-f][1,2,4]triazin-4-yl)-2-methylbenzyl)-1,2,4-oxadiazole-3-carboxamide]
Cc1cc(-c2ncnn3cc(CCN4CCC(c5cc6c(cc5F)c(N5CCC(=O)NC5=O)nn6C)CC4)cc23)ccc1CNC(=O)c1noc(C(C)(C)C)n1 [Example 256, 5-(tert-butyl)-N-(4-(6-(2-(4-(3-(2,4-dioxotetrahydropyrimidin-1(2H)-yl)-5-fluoro-1-methyl-1H-indazol-6-yl)piperidin-1-yl)ethyl)pyrrolo[2,1-f][1,2,4]triazin-4-yl)-2-methylbenzyl)-1,2,4-oxadiazole-3-carboxamide]
Cc1cc(-c2ncnn3cc(CCN4CCC(c5ccc6c(N7CCC(=O)NC7=O)nn(C)c6c5)CC4)cc23)ccc1CNC(=O)c1noc(C2(C)CCC2)n1 [Example 257, N-(4-(6-(2-(4-(3-(2,4-dioxotetrahydropyrimidin-1(2H)-yl)-1-methyl-1H-indazol-6-yl)piperidin-1-yl)ethyl)pyrrolo[2,1-f][1,2,4]triazin-4-yl)-2-methylbenzyl)-5-(1-methylcyclobutyl)-1,2,4-oxadiazole-3-carboxamide]
